Measured values reported in ChEMBL document CHEMBL1201862, “PubChem BioAssay data set” (2004).
The source made the active and inactive calls.

Key:
Protein Tat = Protein Tat (Human immunodeficiency virus type 1 group M subtype B (isolate HXB2)(HIV-1), UniProt P04608); type: functional;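 note: tat binding to TAR RNA read out by fluorescence polarization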
Bcl-2-like protein 10 = biological target: T1, Bcl-2-like protein 10 (Homo sapiens, UniProt Q9HD36); assay: displacers of TR3 peptide from Bcl-B, primary screen, selectivity assay for Bfl-1 inhibitor project, biochemical, fluorescence polarization, FITC-TR3 peptide (AID 748);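 note: fluorescence polarization from a fluorescein-labelled TR3 peptide binding purified Bcl-B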
T1 sequence (Q9HD36 whole entry): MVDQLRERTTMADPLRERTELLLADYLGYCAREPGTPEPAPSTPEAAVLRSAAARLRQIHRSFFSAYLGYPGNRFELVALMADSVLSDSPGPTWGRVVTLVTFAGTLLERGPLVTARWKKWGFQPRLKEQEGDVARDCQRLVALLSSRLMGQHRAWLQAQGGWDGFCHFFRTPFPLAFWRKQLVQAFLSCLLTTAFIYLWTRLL

[1] = biological target: Eukaryotic translation initiation factor 4E (Mus musculus, UniProt P63073); assay: eIF4E–eIF4G protein interaction inhibitors, dose response, biochemical, TR-FRET (AID 855); type: functional;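 note: potency for disrupting eIF4E binding to eIF4GI seen as loss of FRET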
[2] = biological target: Sphingosine 1-phosphate receptor 2 (Homo sapiens, UniProt O95136); assay: Dose Response Cell Based Assay for Agonists of the S1P2 Receptor. [Related pubchem assays: 729, 736, 843 ]; type: functional
Protein RecA = biological target: T2, Protein RecA (Mycobacterium tuberculosis, UniProt P9WHJ3); assay: Fluorescence Cell-Free Homogeneous Dose Retest to Identify Inhibitors of RecA-Intein Splicing Activity. [Related pubchem assays (depositor defined):AID2097, AID2223, AID489010, AID492950]; type: functional
T2 sequence (P9WHJ3 whole entry): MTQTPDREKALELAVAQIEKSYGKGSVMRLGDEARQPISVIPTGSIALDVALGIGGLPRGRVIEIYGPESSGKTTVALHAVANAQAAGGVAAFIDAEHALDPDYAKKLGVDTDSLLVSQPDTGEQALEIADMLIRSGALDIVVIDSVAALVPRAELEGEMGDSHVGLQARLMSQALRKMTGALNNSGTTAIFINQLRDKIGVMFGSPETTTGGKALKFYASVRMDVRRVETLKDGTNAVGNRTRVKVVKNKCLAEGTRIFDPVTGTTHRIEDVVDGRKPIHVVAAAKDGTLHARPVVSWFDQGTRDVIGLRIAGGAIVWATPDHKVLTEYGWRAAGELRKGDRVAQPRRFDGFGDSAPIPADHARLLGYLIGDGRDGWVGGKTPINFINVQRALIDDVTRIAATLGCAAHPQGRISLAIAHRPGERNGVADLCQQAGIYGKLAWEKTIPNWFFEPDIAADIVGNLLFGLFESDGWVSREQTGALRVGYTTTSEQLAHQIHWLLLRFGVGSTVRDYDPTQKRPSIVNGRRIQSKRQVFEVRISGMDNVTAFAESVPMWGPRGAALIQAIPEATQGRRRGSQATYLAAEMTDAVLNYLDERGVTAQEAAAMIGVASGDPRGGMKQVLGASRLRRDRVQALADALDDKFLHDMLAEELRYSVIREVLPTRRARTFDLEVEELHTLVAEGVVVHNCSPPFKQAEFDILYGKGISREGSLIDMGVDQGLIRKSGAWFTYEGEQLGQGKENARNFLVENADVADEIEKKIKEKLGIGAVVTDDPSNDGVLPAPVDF

Genome polyprotein = Genome polyprotein (dengue virus type 2, UniProt P29990); assay: Dengue-2 NS5 methyltransferase inhibitors, primary screen, biochemical, confirmation dose response (AID 588689); type: functional
[3] = biological target: T3, Replicative DNA helicase DnaB (Mycobacterium tuberculosis, UniProt P9WMR3); assay: DnaB intein splicing inhibitors, dose response, biochemical, cell-free fluorescence (AID 449749); type: functional
T3 sequence (P9WMR3 whole entry): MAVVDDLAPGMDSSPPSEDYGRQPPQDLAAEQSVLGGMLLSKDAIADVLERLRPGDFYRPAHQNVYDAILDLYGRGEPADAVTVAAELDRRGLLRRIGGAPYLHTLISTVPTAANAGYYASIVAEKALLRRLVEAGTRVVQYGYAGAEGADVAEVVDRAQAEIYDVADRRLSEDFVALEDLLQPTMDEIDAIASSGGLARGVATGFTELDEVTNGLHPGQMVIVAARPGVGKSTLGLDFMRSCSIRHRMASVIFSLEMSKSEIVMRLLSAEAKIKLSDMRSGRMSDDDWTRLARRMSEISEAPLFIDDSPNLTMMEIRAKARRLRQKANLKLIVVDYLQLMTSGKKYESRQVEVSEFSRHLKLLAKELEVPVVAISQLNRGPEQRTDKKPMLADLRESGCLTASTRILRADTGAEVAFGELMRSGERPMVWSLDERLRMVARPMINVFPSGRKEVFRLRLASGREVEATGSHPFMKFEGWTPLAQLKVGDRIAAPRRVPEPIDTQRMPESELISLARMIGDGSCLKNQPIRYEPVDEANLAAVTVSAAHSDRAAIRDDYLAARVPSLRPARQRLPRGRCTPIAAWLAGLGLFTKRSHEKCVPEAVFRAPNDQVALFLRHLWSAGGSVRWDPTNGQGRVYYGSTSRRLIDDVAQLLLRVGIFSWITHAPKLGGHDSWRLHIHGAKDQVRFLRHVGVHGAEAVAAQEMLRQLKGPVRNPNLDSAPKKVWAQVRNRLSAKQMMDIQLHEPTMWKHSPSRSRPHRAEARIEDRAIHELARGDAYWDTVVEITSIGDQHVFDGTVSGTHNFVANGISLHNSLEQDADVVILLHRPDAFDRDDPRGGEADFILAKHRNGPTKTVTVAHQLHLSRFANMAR

Aminopeptidase N = biological target: T4, Aminopeptidase N (Plasmodium falciparum FcB1/Columbia, UniProt O96935); assay: P. falciparum M1AAP inhibitors, biochemical, fluorogenic H-Leu-NHMec substrate, 1536-well (AID 1445); parameters: species or system Plasmodium falciparum 3D7, 3D7
T4 sequence (O96935 whole entry): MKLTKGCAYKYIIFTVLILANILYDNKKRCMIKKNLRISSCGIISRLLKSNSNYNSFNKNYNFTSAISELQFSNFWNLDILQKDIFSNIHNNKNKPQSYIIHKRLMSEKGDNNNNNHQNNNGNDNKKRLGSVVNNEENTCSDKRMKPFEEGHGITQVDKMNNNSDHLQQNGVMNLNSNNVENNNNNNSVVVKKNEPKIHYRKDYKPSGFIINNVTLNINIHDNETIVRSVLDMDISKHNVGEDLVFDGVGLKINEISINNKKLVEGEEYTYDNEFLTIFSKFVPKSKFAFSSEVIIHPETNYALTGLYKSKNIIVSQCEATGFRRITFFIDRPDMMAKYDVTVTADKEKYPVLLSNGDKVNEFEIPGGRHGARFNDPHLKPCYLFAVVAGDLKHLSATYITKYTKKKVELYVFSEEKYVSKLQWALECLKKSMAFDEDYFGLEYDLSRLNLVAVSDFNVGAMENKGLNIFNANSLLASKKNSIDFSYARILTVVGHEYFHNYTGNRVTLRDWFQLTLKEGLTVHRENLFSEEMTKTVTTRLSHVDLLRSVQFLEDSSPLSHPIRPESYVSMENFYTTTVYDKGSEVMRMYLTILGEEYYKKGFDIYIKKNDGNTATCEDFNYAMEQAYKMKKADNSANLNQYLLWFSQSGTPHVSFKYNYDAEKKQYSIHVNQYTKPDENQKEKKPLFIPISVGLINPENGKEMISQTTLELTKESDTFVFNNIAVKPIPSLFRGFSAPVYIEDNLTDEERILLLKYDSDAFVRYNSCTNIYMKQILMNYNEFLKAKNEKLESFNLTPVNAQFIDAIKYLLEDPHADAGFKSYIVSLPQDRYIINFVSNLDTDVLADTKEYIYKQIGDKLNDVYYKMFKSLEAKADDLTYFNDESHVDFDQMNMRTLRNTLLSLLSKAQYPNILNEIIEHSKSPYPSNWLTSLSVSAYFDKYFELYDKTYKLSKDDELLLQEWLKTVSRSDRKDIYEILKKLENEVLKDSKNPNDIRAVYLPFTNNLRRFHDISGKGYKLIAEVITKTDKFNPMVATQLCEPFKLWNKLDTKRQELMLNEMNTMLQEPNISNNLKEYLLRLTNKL

[4] = biological target: Bifunctional protein GlmU (Mycobacterium tuberculosis, UniProt P9WMN3); assay: Inhibitors of Mycobacterial Glucosamine-1-phosphate acetyl transferase (GlmU). Secondary screen.; parameters: species or system Mycobacterium tuberculosis H37Rv
Chain of Bifunctional protein GlmU (P9WMN3 whole entry): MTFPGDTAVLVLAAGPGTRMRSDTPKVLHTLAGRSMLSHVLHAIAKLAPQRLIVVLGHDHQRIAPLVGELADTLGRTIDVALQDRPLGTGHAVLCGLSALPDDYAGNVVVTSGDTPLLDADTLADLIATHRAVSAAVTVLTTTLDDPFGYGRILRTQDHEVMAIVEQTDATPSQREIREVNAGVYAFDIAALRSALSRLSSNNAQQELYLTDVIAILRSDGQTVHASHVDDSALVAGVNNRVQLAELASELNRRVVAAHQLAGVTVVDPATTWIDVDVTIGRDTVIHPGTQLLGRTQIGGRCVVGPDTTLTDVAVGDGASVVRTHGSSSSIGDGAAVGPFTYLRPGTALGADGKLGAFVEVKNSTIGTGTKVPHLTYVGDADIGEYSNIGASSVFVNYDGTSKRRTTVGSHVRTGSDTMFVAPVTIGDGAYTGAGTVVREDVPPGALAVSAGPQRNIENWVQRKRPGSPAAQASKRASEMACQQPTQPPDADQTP

Chain of Sphingosine 1-phosphate receptor 2 (O95136 whole entry): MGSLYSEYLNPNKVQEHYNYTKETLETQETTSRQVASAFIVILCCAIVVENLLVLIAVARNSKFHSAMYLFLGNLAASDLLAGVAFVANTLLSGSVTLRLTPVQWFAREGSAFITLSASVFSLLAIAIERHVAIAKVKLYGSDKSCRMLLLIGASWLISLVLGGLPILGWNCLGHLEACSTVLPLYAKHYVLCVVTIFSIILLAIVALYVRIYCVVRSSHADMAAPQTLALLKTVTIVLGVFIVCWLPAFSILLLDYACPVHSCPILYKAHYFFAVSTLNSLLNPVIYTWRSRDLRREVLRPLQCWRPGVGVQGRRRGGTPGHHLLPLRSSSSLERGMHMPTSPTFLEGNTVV
Chain of Protein Tat (P04608 whole entry): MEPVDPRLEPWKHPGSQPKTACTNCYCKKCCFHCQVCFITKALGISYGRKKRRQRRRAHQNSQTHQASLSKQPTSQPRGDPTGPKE
Chain of Eukaryotic translation initiation factor 4E (P63073 whole entry): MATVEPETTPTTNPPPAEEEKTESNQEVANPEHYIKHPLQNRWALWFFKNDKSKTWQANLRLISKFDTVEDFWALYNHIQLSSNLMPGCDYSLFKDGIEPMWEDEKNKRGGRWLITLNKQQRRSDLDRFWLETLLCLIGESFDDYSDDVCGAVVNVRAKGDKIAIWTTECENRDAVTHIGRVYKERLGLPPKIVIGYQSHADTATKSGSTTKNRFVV
Chain of Genome polyprotein (P29990 2492-3391 limits assumed): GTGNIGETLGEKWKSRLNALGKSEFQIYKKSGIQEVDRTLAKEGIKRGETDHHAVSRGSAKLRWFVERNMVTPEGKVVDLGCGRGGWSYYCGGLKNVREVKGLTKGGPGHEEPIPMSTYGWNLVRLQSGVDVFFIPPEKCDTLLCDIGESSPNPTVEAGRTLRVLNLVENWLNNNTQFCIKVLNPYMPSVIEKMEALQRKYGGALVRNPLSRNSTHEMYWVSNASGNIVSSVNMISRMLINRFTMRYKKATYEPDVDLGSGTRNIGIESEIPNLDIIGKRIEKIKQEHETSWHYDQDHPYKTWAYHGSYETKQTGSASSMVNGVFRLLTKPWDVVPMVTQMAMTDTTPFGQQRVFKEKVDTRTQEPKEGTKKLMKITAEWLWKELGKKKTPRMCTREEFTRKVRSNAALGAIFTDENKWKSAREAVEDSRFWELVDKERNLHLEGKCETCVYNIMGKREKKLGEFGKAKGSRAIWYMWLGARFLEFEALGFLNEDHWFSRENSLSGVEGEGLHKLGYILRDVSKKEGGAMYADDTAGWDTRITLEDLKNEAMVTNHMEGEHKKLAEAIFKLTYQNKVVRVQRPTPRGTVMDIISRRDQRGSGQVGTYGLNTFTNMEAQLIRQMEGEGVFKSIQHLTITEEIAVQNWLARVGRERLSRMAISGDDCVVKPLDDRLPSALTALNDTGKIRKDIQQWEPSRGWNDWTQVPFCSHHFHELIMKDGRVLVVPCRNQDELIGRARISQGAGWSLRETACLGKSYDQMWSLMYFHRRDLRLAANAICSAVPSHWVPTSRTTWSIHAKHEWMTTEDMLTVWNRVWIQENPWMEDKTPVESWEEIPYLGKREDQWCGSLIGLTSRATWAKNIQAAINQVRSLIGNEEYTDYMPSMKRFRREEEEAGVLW

For O=C1c2ccccc2CC1Sc1nnc(-c2ccccn2)o1 (centres undefined), the IC50 (Protein Tat) was > 100 µM (active) and the IC50 (Bcl-2-like protein 10) was > 100 µM (inactive).
In the case of CCOc1cccc(OCCCCn2ccnc2)c1, the IC50 [1] is reported as > 64 µM (inactive) and the EC50 [2] is reported as > 50 µM (not active).
For CC1=NN(c2ccc(Cl)c(C(=O)O)c2)C(=O)/C1=C\c1ccc(-c2ccc(C(=O)O)cc2)o1, the EC50 (Protein RecA) was 0.4 µM (active), the IC50 (Genome polyprotein) was 19.4 µM (active) and the AC50 [3] was 0.484 µM (active). The IC50 (Aminopeptidase N) was 2.41 µM (active) and the IC50 [4] was 94.1 µM (active).
